Measured values from PubChem BioAssay (NCI).
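All cell lines were grown in 96-well plates and treated with compound for 48 hours. GI50: concentration for 50% inhibition of growth. The concentration for full growth arrest is given as TGI.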

Assays:
Test in all cases: DTP human tumour cell line panel, 48 h
NCI-H23 lung = system: NCI-H23 lung
NCI-H460 lung = system: NCI-H460 lung
NCI-H522 lung = system: NCI-H522 lung
NCI/ADR-RES ovarian = system: NCI/ADR-RES ovarian
OVCAR-4 ovarian = system: OVCAR-4 ovarian
OVCAR-5 ovarian = system: OVCAR-5 ovarian
OVCAR-8 ovarian = system: OVCAR-8 ovarian
PC-3 prostate = system: PC-3 prostate
RPMI-8226 leukemia = system: RPMI-8226 leukemia
RXF 393 renal = system: RXF 393 renal
SF-268 CNS = system: SF-268 CNS
SF-295 CNS = system: SF-295 CNS
SF-539 CNS = system: SF-539 CNS
SK-MEL-2 melanoma = system: SK-MEL-2 melanoma
SK-MEL-28 melanoma = system: SK-MEL-28 melanoma
SK-MEL-5 melanoma = system: SK-MEL-5 melanoma
SK-OV-3 ovarian = system: SK-OV-3 ovarian
SN12C renal = system: SN12C renal
SNB-19 CNS = system: SNB-19 CNS
SNB-75 CNS = system: SNB-75 CNS
SR leukemia = system: SR leukemia
SW-620 colon = system: SW-620 colon
T-47D breast = system: T-47D breast
TK-10 renal = system: TK-10 renal
U251 CNS = system: U251 CNS
UACC-257 melanoma = system: UACC-257 melanoma
UACC-62 melanoma = system: UACC-62 melanoma
UO-31 renal = system: UO-31 renal

For `O=C(NCCCNc1cc(-c2cn(-c3ccccc3)nc2-c2cccc(O)c2)ccn1)Nc1cccc(C(F)(F)F)c1`, which GI50 (NCI-H23 lung) is on record?
The GI50 was 4.34 µM.

And the TGI (NCI-H23 lung)?
The TGI was 9.34 µM.

And the GI50 (NCI-H460 lung)?
The GI50 was 3.48 µM.

And the TGI (NCI-H460 lung)?
The TGI was 8.89 µM.

What about the GI50 (NCI-H522 lung) of the same compound?
Its GI50 is 5.12 µM.

What about the TGI (NCI-H522 lung) of the same compound?
Its TGI is 11 µM.

And the GI50 (NCI/ADR-RES ovarian)?
The GI50 was 4.9 µM.

What about the TGI (NCI/ADR-RES ovarian) of the same compound?
Its TGI is 12.8 µM.

What about the GI50 (OVCAR-4 ovarian) of the same compound?
Its GI50 is 2.13 µM.

And the TGI (OVCAR-4 ovarian)?
The TGI was 7.75 µM.

What about the GI50 (OVCAR-5 ovarian) of the same compound?
Its GI50 is 3.96 µM.

And the TGI (OVCAR-5 ovarian)?
The TGI was 9.71 µM.

And the GI50 (OVCAR-8 ovarian)?
The GI50 was 3.88 µM.

What about the TGI (OVCAR-8 ovarian) of the same compound?
Its TGI is 10 µM.

And the GI50 (PC-3 prostate)?
Its GI50 is 1.79 µM.

What about the TGI (PC-3 prostate) of the same compound?
The TGI was 11.2 µM.

What about the GI50 (RPMI-8226 leukemia) of the same compound?
Its GI50 is 0.727 µM.

And the TGI (RPMI-8226 leukemia)?
Its TGI is 6.12 µM.

What about the GI50 (RXF 393 renal) of the same compound?
The GI50 was 1.08 µM.

What about the TGI (RXF 393 renal) of the same compound?
Its TGI is 4.96 µM.

And the GI50 (SF-268 CNS)?
The GI50 was 3.26 µM.

And the TGI (SF-268 CNS)?
The TGI was 9.69 µM.

And the GI50 (SF-295 CNS)?
Its GI50 is 1.76 µM.

What about the TGI (SF-295 CNS) of the same compound?
The TGI was 6.42 µM.

And the GI50 (SF-539 CNS)?
The GI50 was 2.78 µM.

And the TGI (SF-539 CNS)?
Its TGI is 7.18 µM.

What about the GI50 (SK-MEL-2 melanoma) of the same compound?
Its GI50 is 5.29 µM.

What about the TGI (SK-MEL-2 melanoma) of the same compound?
The TGI was 11.7 µM.

What about the GI50 (SK-MEL-28 melanoma) of the same compound?
The GI50 was 3.48 µM.

And the TGI (SK-MEL-28 melanoma)?
Its TGI is 7.51 µM.

What about the GI50 (SK-MEL-5 melanoma) of the same compound?
Its GI50 is 3.25 µM.

And the TGI (SK-MEL-5 melanoma)?
The TGI was 7.16 µM.

What about the GI50 (SK-OV-3 ovarian) of the same compound?
The GI50 was 4.49 µM.

And the TGI (SK-OV-3 ovarian)?
The TGI was 10.1 µM.

What about the GI50 (SN12C renal) of the same compound?
Its GI50 is 3.65 µM.

What about the TGI (SN12C renal) of the same compound?
The TGI was 7.91 µM.

And the GI50 (SNB-19 CNS)?
The GI50 was 3.99 µM.

And the TGI (SNB-19 CNS)?
Its TGI is 8.97 µM.

And the GI50 (SNB-75 CNS)?
Its GI50 is 0.743 µM.

And the TGI (SNB-75 CNS)?
The TGI was 4.1 µM.

What about the GI50 (SR leukemia) of the same compound?
Its GI50 is 1.65 µM.

What about the TGI (SR leukemia) of the same compound?
Its TGI is 12.8 µM.

What about the GI50 (SW-620 colon) of the same compound?
The GI50 was 3.85 µM.

And the TGI (SW-620 colon)?
The TGI was 8.31 µM.

What about the GI50 (T-47D breast) of the same compound?
The GI50 was 3.42 µM.

And the TGI (T-47D breast)?
The TGI was 16.7 µM.

And the GI50 (TK-10 renal)?
Its GI50 is 5.75 µM.

What about the TGI (TK-10 renal) of the same compound?
Its TGI is 13.2 µM.

What about the GI50 (U251 CNS) of the same compound?
The GI50 was 2.57 µM.

And the TGI (U251 CNS)?
Its TGI is 7.45 µM.

What about the GI50 (UACC-257 melanoma) of the same compound?
Its GI50 is 4.8 µM.

And the TGI (UACC-257 melanoma)?
Its TGI is 10.1 µM.

What about the GI50 (UACC-62 melanoma) of the same compound?
Its GI50 is 4.41 µM.

What about the TGI (UACC-62 melanoma) of the same compound?
Its TGI is 8.84 µM.

And the GI50 (UO-31 renal)?
Its GI50 is 2.1 µM.

And the TGI (UO-31 renal)?
Its TGI is 10.8 µM.
